Legend:
Settings in all cases: exposure time: 72 h
[1] = tested on: E13 (patient-derived glioblastoma stem cells of classical subtype); experiment: surviving fraction (nuclei count normalised to DMSO); higher = more cells surviving (less toxic)
[2] = tested on: E21 (patient-derived glioblastoma stem cells of mesenchymal subtype); experiment: as above
[3] = tested on: E28 (patient-derived glioblastoma stem cells of classical subtype); experiment: as above
[4] = tested on: E31 (patient-derived glioblastoma stem cells of proneural subtype); experiment: as above
[5] = tested on: E34 (patient-derived glioblastoma stem cells of proneural subtype); experiment: as above
[6] = tested on: E57 (patient-derived glioblastoma stem cells of mesenchymal subtype); experiment: as above
[7] = tested on: FT3469 (normal neural stem cell line); experiment: as above
[8] = tested on: E13; experiment: phenotypic distance (Euclidean, principal components) from DMSO controls (arbitrary units); higher = stronger morphological change
[9] = tested on: E21; experiment: as above
[10] = tested on: E28; experiment: as above
[11] = tested on: E31; experiment: as above
[12] = tested on: E34; experiment: as above
[13] = tested on: E57; experiment: as above
[14] = tested on: FT3469; experiment: as above
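Wherever phenotypic distance (Euclidean, principal components) from DMSO controls is given: cell Painting imaging in 384-well plates, CellProfiler features reduced to at least 20 principal components, Euclidean distance versus same-plate DMSO vehicle wells (0.1% v/v), median over six images per well.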
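Wherever surviving fraction (nuclei count normalised to DMSO) is given: nuclei counted by high-content imaging of Hoechst-stained cells in laminin-coated 384-well plates, relative to 0.1% DMSO vehicle wells, with staurosporine as cell-death control.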

C=CC(=O)Nc1cccc(Oc2nc(Nc3ccc(N4CCN(C)CC4)cc3)nc3ccsc23)c1 [Olmutinib]
Settings | phenotypic distance | surviving fraction
[1], 4.1 nM | – | 0.944
[1], 12.3 nM | – | 0.915
[1], 37 nM | – | 0.963
[1], 111.1 nM | – | 0.967
[1], 333.3 nM | – | 0.965
[1], 1000 nM | – | 0.801
[1], 3000 nM | – | 0.453
[2], 4.1 nM | – | 0.895
[2], 12.3 nM | – | 0.932
[2], 37 nM | – | 0.932
[2], 111.1 nM | – | 0.759
[2], 333.3 nM | – | 0.873
[2], 1000 nM | – | 0.67
[2], 3000 nM | – | 0.411
[3], 4.1 nM | – | 0.955
[3], 12.3 nM | – | 0.88
[3], 37 nM | – | 1.02
[3], 111.1 nM | – | 0.954
[3], 333.3 nM | – | 0.885
[3], 1000 nM | – | 0.842
[3], 3000 nM | – | 0.419
[4], 4.1 nM | – | 0.776
[4], 12.3 nM | – | 0.969
[4], 37 nM | – | 1.01
[4], 111.1 nM | – | 0.698
[4], 333.3 nM | – | 0.856
[4], 1000 nM | – | 0.568
[4], 3000 nM | – | 0.155
[5], 4.1 nM | – | 0.929
[5], 12.3 nM | – | 0.967
[5], 37 nM | – | 0.814
[5], 111.1 nM | – | 0.994
[5], 333.3 nM | – | 0.857
[5], 1000 nM | – | 0.804
[5], 3000 nM | – | 0.673
[6], 4.1 nM | – | 0.983
[6], 12.3 nM | – | 1.09
[6], 37 nM | – | 0.983
[6], 111.1 nM | – | 0.915
[6], 333.3 nM | – | 0.958
[6], 1000 nM | – | 0.845
[6], 3000 nM | – | 0.585
[7], 4.1 nM | – | 0.879
[7], 12.3 nM | – | 0.925
[7], 37 nM | – | 0.864
[7], 111.1 nM | – | 0.916
[7], 333.3 nM | – | 0.851
[7], 1000 nM | – | 0.856
[7], 3000 nM | – | 0.722
[8], 4.1 nM | 0.908 | –
[8], 12.3 nM | 0.809 | –
[8], 37 nM | 2.13 | –
[8], 111.1 nM | 1.1 | –
[8], 333.3 nM | 0.827 | –
[8], 1000 nM | 0.937 | –
[8], 3000 nM | 1.92 | –
[9], 4.1 nM | 0.923 | –
[9], 12.3 nM | 0.831 | –
[9], 37 nM | 0.851 | –
[9], 111.1 nM | 3.27 | –
[9], 333.3 nM | 1.24 | –
[9], 1000 nM | 2.44 | –
[9], 3000 nM | 5.22 | –
[10], 4.1 nM | 0.675 | –
[10], 12.3 nM | 0.862 | –
[10], 37 nM | 0.601 | –
[10], 111.1 nM | 0.634 | –
[10], 333.3 nM | 0.515 | –
[10], 1000 nM | 1.01 | –
[10], 3000 nM | 2.28 | –
[11], 4.1 nM | 1.5 | –
[11], 12.3 nM | 0.605 | –
[11], 37 nM | 0.731 | –
[11], 111.1 nM | 1.36 | –
[11], 333.3 nM | 0.65 | –
[11], 1000 nM | 1.66 | –
[11], 3000 nM | 4.05 | –
[12], 4.1 nM | 0.793 | –
[12], 12.3 nM | 0.977 | –
[12], 37 nM | 0.66 | –
[12], 111.1 nM | 0.999 | –
[12], 333.3 nM | 0.636 | –
[12], 1000 nM | 0.75 | –
[12], 3000 nM | 2.02 | –
[13], 4.1 nM | 0.67 | –
[13], 12.3 nM | 0.94 | –
[13], 37 nM | 0.658 | –
[13], 111.1 nM | 2.04 | –
[13], 333.3 nM | 0.972 | –
[13], 1000 nM | 0.888 | –
[13], 3000 nM | 3.89 | –
[14], 4.1 nM | 1.28 | –
[14], 12.3 nM | 1.16 | –
[14], 37 nM | 1.51 | –
[14], 111.1 nM | 1.24 | –
[14], 333.3 nM | 1.44 | –
[14], 1000 nM | 1.3 | –
[14], 3000 nM | 1.91 | –

COc1ccc2[nH]c([S+]([O-])Cc3ncc(C)c(OC)c3C)nc2c1 (stereo unspecified) [Omeprazole]
Settings | phenotypic distance | surviving fraction
[1], 4.1 nM | – | 1.05
[1], 12.3 nM | – | 0.938
[1], 37 nM | – | 0.905
[1], 111.1 nM | – | 1.03
[1], 333.3 nM | – | 0.869
[1], 1000 nM | – | 1
[1], 3000 nM | – | 0.867
[2], 4.1 nM | – | 0.918
[2], 12.3 nM | – | 0.928
[2], 37 nM | – | 1.02
[2], 111.1 nM | – | 0.96
[2], 333.3 nM | – | 0.928
[2], 1000 nM | – | 0.956
[2], 3000 nM | – | 0.943
[3], 4.1 nM | – | 0.929
[3], 12.3 nM | – | 1.07
[3], 37 nM | – | 1.08
[3], 111.1 nM | – | 1.01
[3], 333.3 nM | – | 0.973
[3], 1000 nM | – | 1.12
[3], 3000 nM | – | 1.07
[4], 4.1 nM | – | 0.952
[4], 12.3 nM | – | 1.04
[4], 37 nM | – | 1.03
[4], 111.1 nM | – | 0.985
[4], 333.3 nM | – | 1.06
[4], 1000 nM | – | 0.947
[4], 3000 nM | – | 0.777
[5], 4.1 nM | – | 1.02
[5], 12.3 nM | – | 1.19
[5], 37 nM | – | 1.12
[5], 111.1 nM | – | 0.869
[5], 333.3 nM | – | 0.988
[5], 1000 nM | – | 1.04
[5], 3000 nM | – | 0.988
[6], 4.1 nM | – | 1.08
[6], 12.3 nM | – | 0.963
[6], 37 nM | – | 0.934
[6], 111.1 nM | – | 0.99
[6], 333.3 nM | – | 0.91
[6], 1000 nM | – | 1.01
[6], 3000 nM | – | 0.926
[7], 4.1 nM | – | 0.946
[7], 12.3 nM | – | 1.04
[7], 37 nM | – | 1
[7], 111.1 nM | – | 0.823
[7], 333.3 nM | – | 1.04
[7], 1000 nM | – | 0.979
[7], 3000 nM | – | 0.976
[8], 4.1 nM | 1.1 | –
[8], 12.3 nM | 0.755 | –
[8], 37 nM | 3.51 | –
[8], 111.1 nM | 0.567 | –
[8], 333.3 nM | 0.654 | –
[8], 1000 nM | 2.01 | –
[8], 3000 nM | 2.52 | –
[9], 4.1 nM | 0.405 | –
[9], 12.3 nM | 0.66 | –
[9], 37 nM | 0.543 | –
[9], 111.1 nM | 0.648 | –
[9], 333.3 nM | 0.808 | –
[9], 1000 nM | 0.429 | –
[9], 3000 nM | 0.519 | –
[10], 4.1 nM | 0.44 | –
[10], 12.3 nM | 0.413 | –
[10], 37 nM | 0.667 | –
[10], 111.1 nM | 0.895 | –
[10], 333.3 nM | 0.743 | –
[10], 1000 nM | 0.799 | –
[10], 3000 nM | 0.723 | –
[11], 4.1 nM | 0.572 | –
[11], 12.3 nM | 0.759 | –
[11], 37 nM | 0.563 | –
[11], 111.1 nM | 0.747 | –
[11], 333.3 nM | 0.837 | –
[11], 1000 nM | 0.778 | –
[11], 3000 nM | 0.726 | –
[12], 4.1 nM | 1.17 | –
[12], 12.3 nM | 0.774 | –
[12], 37 nM | 1.1 | –
[12], 111.1 nM | 0.579 | –
[12], 333.3 nM | 1.09 | –
[12], 1000 nM | 0.511 | –
[12], 3000 nM | 0.693 | –
[13], 4.1 nM | 0.551 | –
[13], 12.3 nM | 0.53 | –
[13], 37 nM | 0.343 | –
[13], 111.1 nM | 0.729 | –
[13], 333.3 nM | 0.596 | –
[13], 1000 nM | 0.755 | –
[13], 3000 nM | 1.11 | –
[14], 4.1 nM | 0.923 | –
[14], 12.3 nM | 0.698 | –
[14], 37 nM | 0.685 | –
[14], 111.1 nM | 1.14 | –
[14], 333.3 nM | 0.549 | –
[14], 1000 nM | 0.593 | –
[14], 3000 nM | 0.772 | –
